In the pKa sets of Baltruschat and Czodrowski (2020):

Which pKa does the source give for `CC(=O)Nc1cc(Cl)ccc1/C=C/C(=O)N1CC[NH+](Cc2ccc(F)cc2)C[C@H]1C` here?
The pKa was 5.9.

With `Cc1nc(N2CCN(CC3CC3)C2=O)sc1C(=O)NCc1cccnc1` as the molecule, how does the pKa read?
The pKa was 5.

For `CCN1c2ccc(C#N)cc2N=C(c2ccc(C(=O)[O-])c(F)c2)c2cc3c(cc21)C(C)(C)CCC3(C)C`, which pKa is on record?
Its pKa is 3.

Which pKa does the source give for `Cc1nc2ccccn2c1C(=O)NCc1ccc(-c2ccccc2)cc1` here?
Its pKa is 4.7.

Which pKa does the source give for `CC(C)COC(=O)Nc1ccc(-c2cnc3c(-c4ccc(N5CC[NH+](C)CC5)cc4)cnn3c2N)cc1` here?
The pKa was 8.2.

With `COc1ccc(SC)c2c1C[C@@H]1[C@@H](C2)OCC[NH+]1C` as the molecule, how does the pKa read?
The pKa was 6.25.

For `COc1ccc(N2CCc3c(-n4ccc(N5CCNC5=O)n4)cc(C)nc32)c(C)c1`, which pKa is on record?
The pKa was 6.37.

Which pKa does the source give for `O=C([O-])c1ccc(NC(=O)c2cn(-c3ccccc3)nc2-c2ccc(Cl)cc2)cc1` here?
Its pKa is 4.2.

For `C/C(=C\c1ccccn1)[C@@H]1C[C@@H]2O[C@]2(C)CCC[C@H](C)[C@H](O)[C@@H](C)C(=O)C(C)(C)[C@@H](O)CC(=O)O1`, which pKa is on record?
The pKa was 5.

With `N#Cc1ncc2cc(COc3ccc(C(=O)[O-])cc3)n(CCC3CCCCC3)c2n1` as the molecule, how does the pKa read?
Its pKa is 4.2.

Which pKa does the source give for `Cn1c(N)nc2ccccc2c1=O` here?
The pKa was 5.2.

Which pKa does the source give for `CC(=O)N1CCN(c2ccc(OCc3cc4cnc(C#N)nc4n3CCC3CCC(F)(F)CC3)cc2)CC1` here?
The pKa was 3.6.

With `C/C(=C\c1ccc(C)cn1)[C@@H]1C[C@@H]2O[C@]2(C)CCC[C@H](C)[C@H](O)[C@@H](C)C(=O)C(C)(C)[C@@H](O)CC(=O)O1` as the molecule, how does the pKa read?
The pKa was 4.5.

For `Clc1ccc(-c2ccc(-c3ccnc(N4CC[NH2+]CC4)n3)s2)cc1`, which pKa is on record?
The pKa was 8.9.

With `CCOCC(=O)N1CCC(CNc2nc3c(s2)CCOc2ccc(F)cc2-3)CC1` as the molecule, how does the pKa read?
The pKa was 3.7.

With `O=C([O-])c1ccccc1Nc1ccc(CCc2ccc(Cl)c(Cl)c2)cc1` as the molecule, how does the pKa read?
Its pKa is 4.39.

Which pKa does the source give for `Cc1onc(-c2ccccc2)c1-c1ccc(S(N)(=O)=O)cc1` here?
The pKa was 10.

Which pKa does the source give for `CC(=O)Nc1cccc2c1c(Sc1ccc(Cl)cc1)c(C)n2CC(=O)[O-]` here?
The pKa was 2.92.

With `O=c1cc(CSc2cccc(F)c2F)nc2cc(-c3ccco3)[nH]n12` as the molecule, how does the pKa read?
Its pKa is 7.5.

With `Cc1ccc(C)n1-c1ccc(Cl)cc1C(=O)[O-]` as the molecule, how does the pKa read?
Its pKa is 3.35.

With `CCc1ccc(-c2cnc(C)nc2NC2CCCC2)cc1` as the molecule, how does the pKa read?
The pKa was 6.8.

Which pKa does the source give for `O=C([O-])COc1ccc(Cl)cc1C1CCCCC1` here?
The pKa was 3.51.

Which pKa does the source give for `Cc1c(CC(=O)[O-])c2cccnc2n1S(=O)(=O)c1ccc(Cl)cc1` here?
The pKa was 3.86.

Which pKa does the source give for `CC(C)(C)[NH2+]C[C@H](O)c1cc(Cl)c(N)c(Cl)c1` here?
The pKa was 9.7.

For `O=NC(=O)CCc1ccc(C[NH2+]CC23CC4CC(CC(C4)C2)C3)cc1`, which pKa is on record?
Its pKa is 8.85.

For `Cc1ccnc(N2CCC3(CCCN(Cc4c[nH]c5ccccc45)C3=O)CC2)n1`, which pKa is on record?
Its pKa is 4.2.

With `CC(C)(C)OC(=O)N1CCC(C(=O)NS(=O)(=O)c2c(Cl)sc(Cl)c2Br)CC1` as the molecule, how does the pKa read?
The pKa was 2.1.

Which pKa does the source give for `O=C(NCC[NH+]1CCC(n2c(=O)[nH]c3cc(F)ccc32)CC1)c1ccc(F)cc1` here?
Its pKa is 8.77.

Which pKa does the source give for `Cc1[nH]c2ccccc2c1C1CC[NH+](Cc2ccc(CCC(=O)N=O)cc2)C1` (centres undefined) here?
Its pKa is 8.59.

Which pKa does the source give for `CC(C)Cn1cnc2c(N)nc3ccccc3c21` here?
Its pKa is 7.24.

Which pKa does the source give for `CS(=O)(=O)Nn1c(=O)[nH]c2cc(C(F)(F)F)c(N3CCOCC3)cc2c1=O` here?
Its pKa is 8.35.

With `C[NH+](C)CC1CCc2cc(NC(=O)c3ccc(-c4ccc(F)cc4)cc3)ccc2C1` (centres undefined) as the molecule, how does the pKa read?
Its pKa is 9.1.

With `Clc1ccc(OCc2nn[n-]n2)c(C2CCCCC2)c1` as the molecule, how does the pKa read?
The pKa was 3.87.

With `CC(C)(C)Cn1c(Cc2ccc(NS(N)(=O)=O)cc2)cc2cnc(C#N)nc21` as the molecule, how does the pKa read?
The pKa was 9.3.

Which pKa does the source give for `COc1ccnc(N2CCC3(CCCN(Cc4c[nH]c5ccccc45)C3=O)CC2)n1` here?
Its pKa is 5.28.

For `CS(=O)(=O)c1ccc(C(=O)Nc2ccc(Cl)c(-c3ccccn3)c2)c(Cl)c1`, which pKa is on record?
The pKa was 3.84.

With `O=c1[nH]c(-c2ccc(C(F)(F)F)cc2)nc2c1CCOC2` as the molecule, how does the pKa read?
The pKa was 7.87.

With `O=C([O-])c1ccc(-c2nc(-c3cccc(C(F)(F)F)c3)cs2)cc1` as the molecule, how does the pKa read?
The pKa was 4.1.

Which pKa does the source give for `CC(C)N(CCCCOCC(=O)NS(C)(=O)=O)c1cnc(-c2ccccc2)c(-c2ccccc2)n1` here?
The pKa was 3.37.

With `CS(=O)(=O)c1ccc(-c2nc3c(c(=O)[nH]2)COCC3)cc1` as the molecule, how does the pKa read?
Its pKa is 7.31.

Which pKa does the source give for `CC#CCn1c(N2CC[NH2+]CC2)c(C#N)c2ncn(CC(=O)c3cccc(OC)c3)c(=O)c21` here?
Its pKa is 8.2.

With `O=C1NC(=O)C(c2c[nH]c3ccccc23)=C1c1nc(N2CCOCC2)nc2ccccc12` as the molecule, how does the pKa read?
The pKa was 9.3.

With `CC(=O)N1CCN(c2ccc(OCc3cc4cnc(C#N)nc4n3CCC3CCCCC3)cc2)CC1` as the molecule, how does the pKa read?
Its pKa is 3.3.

Which pKa does the source give for `CC(C)[NH+](CCc1c(C(C)(C)O)[nH]c2ccccc12)Cc1ccc(CCC(=O)N=O)cc1` here?
Its pKa is 9.01.
